According to US20240382629A1, “HETEROBIVALENT AND HOMOBIVALENT AGENTS TARGETING FIBROBLAST ACTIVATION PROTEIN ALPHA AND/OR PROSTATE-SPECIFIC MEMBRANE ANTIGEN” (The Johns Hopkins University, priority 2021, published 2024):
“And” between values parts separate entries of the source, which are not always exact repeats. Equal entries are not always repeated.

Assay: Biodistribution of [^18F]JHU122047 with UAMC-01110 blocker
Type: in vivo, mouse
Conditions: 60 min; for % ID/g Bladder / % ID/g Blood / % ID/g Brain / % ID/g Fat / % ID/g Femur / % ID/g Heart / % ID/g Kidney / % ID/g Large intestine / % ID/g Liver / % ID/g Lung / % ID/g Muscle / % ID/g Pancreas / % ID/g Salivery gland / % ID/g Small intestine / % ID/g Spleen / % ID/g Stomach / % ID/g Tumor: individual mouse
[1] = NOD/SCID Model, + Blocker (UAMC-01110)
[2] = Nude Model, + Blocker (UAMC-01110)

For `N#C[C@@H]1CCCN1C(=O)CNC(=O)c1ccnc2ccc(OCCCNC(=O)[C@H](CCNC(=O)c3ccc([18F])nc3)NC(=O)CN3CCN(CC(=O)[O-])CCN(CC(=O)[O-])CCN(CC(=O)[O-])CC3)cc12.[In+3]` [[^18F]Sri-08-51], the “% ID/g Bladder” value [1] was 13.35 % ID/g and 61.94 % ID/g, the “% ID/g Blood” value [1] was 0.22 % ID/g and 0.40 % ID/g and the “% ID/g Brain” value [1] was 0.02 % ID/g and 1.02 % ID/g. For the same compound, the “% ID/g Fat” value [1] was 0.06 % ID/g, the “% ID/g Femur” value [1] was 0.88 % ID/g and 0.38 % ID/g and the “% ID/g Heart” value [1] was 0.11 % ID/g and 0.25 % ID/g. The “% ID/g Kidney” value [1] was 1.42 % ID/g and 1.40 % ID/g, the “% ID/g Large intestine” value [1] was 0.19 % ID/g and 0.35 % ID/g and the “% ID/g Liver” value [1] was 4.02 % ID/g and 8.14 % ID/g. The “% ID/g Lung” value [1] was 0.32 % ID/g and 0.61 % ID/g, the “% ID/g Muscle” value [1] was 0.07 % ID/g and 0.49 % ID/g and the “% ID/g Pancreas” value [1] was 0.08 % ID/g and 0.17 % ID/g. The “% ID/g Salivery gland” value [1] was 0.45 % ID/g and 0.26 % ID/g, the “% ID/g Small intestine” value [1] was 0.94 % ID/g and 2.12 % ID/g and the “% ID/g Spleen” value [1] was 0.14 % ID/g and 0.32 % ID/g. For the same compound, the “% ID/g Stomach” value [1] was 0.25 % ID/g and 0.45 % ID/g, the “% ID/g Tumor” value [1] was 1.34 % ID/g and 0.91 % ID/g and the “% ID/g Bladder Mean” value [1] was 37.64 % ID/g. The “% ID/g Blood Mean” value [1] was 0.31 % ID/g, the “% ID/g Brain Mean” value [1] was 0.52 % ID/g and the “% ID/g Fat Mean” value [1] was 0.06 % ID/g. The “% ID/g Femur Mean” value [1] was 0.88 % ID/g, the “% ID/g Heart Mean” value [1] was 0.18 % ID/g and the “% ID/g Kidney Mean” value [1] was 1.41 % ID/g. The “% ID/g Large intestine Mean” value [1] was 0.27 % ID/g, the “% ID/g Liver Mean” value [1] was 6.08 % ID/g and the “% ID/g Lung Mean” value [1] was 0.47 % ID/g. The “% ID/g Muscle Mean” value [1] was 0.28 % ID/g, the “% ID/g Pancreas Mean” value [1] was 0.13 % ID/g and the “% ID/g Salivary gland Mean” value [1] was 0.35 % ID/g. For the same compound, the “% ID/g Small intestine Mean” value [1] was 1.53 % ID/g, the “% ID/g Spleen Mean” value [1] was 0.23 % ID/g and the “% ID/g Stomach Mean” value [1] was 0.35 % ID/g. The “% ID/g Tumor Mean” value [1] was 1.13 % ID/g, the “% ID/g Bladder” value (NOD/SCID Model, no blocker) was 44.77 % ID/g and 23.08 % ID/g and the “% ID/g Blood” value (NOD/SCID Model, no blocker) was 4.18 % ID/g and 5.83 % ID/g. For the same compound, the “% ID/g Brain” value (NOD/SCID Model, no blocker) was 0.26 % ID/g and 0.25 % ID/g, the “% ID/g Fat” value (NOD/SCID Model, no blocker) was 2.81 % ID/g and 0.45 % ID/g and the “% ID/g Femur” value (NOD/SCID Model, no blocker) was 4.83 % ID/g and 5.16 % ID/g. For the same compound, the “% ID/g Heart” value (NOD/SCID Model, no blocker) was 1.74 % ID/g and 2.39 % ID/g, the “% ID/g Kidney” value (NOD/SCID Model, no blocker) was 2.10 % ID/g and 2.19 % ID/g and the “% ID/g Large intestine” value (NOD/SCID Model, no blocker) was 1.91 % ID/g and 1.87 % ID/g. The “% ID/g Liver” value (NOD/SCID Model, no blocker) was 3.23 % ID/g and 4.21 % ID/g, the “% ID/g Lung” value (NOD/SCID Model, no blocker) was 2.77 % ID/g and 2.76 % ID/g and the “% ID/g Muscle” value (NOD/SCID Model, no blocker) was 2.84 % ID/g and 2.83 % ID/g. For the same compound, the “% ID/g Pancreas” value (NOD/SCID Model, no blocker) was 3.99 % ID/g and 4.82 % ID/g, the “% ID/g Salivery gland” value (NOD/SCID Model, no blocker) was 12.48 % ID/g and 14.32 % ID/g and the “% ID/g Small intestine” value (NOD/SCID Model, no blocker) was 2.09 % ID/g. For the same compound, the “% ID/g Spleen” value (NOD/SCID Model, no blocker) was 1.27 % ID/g and 1.71 % ID/g, the “% ID/g Stomach” value (NOD/SCID Model, no blocker) was 1.65 % ID/g and 1.75 % ID/g and the “% ID/g Tumor” value (NOD/SCID Model, no blocker) was 16.64 % ID/g and 15.98 % ID/g. The “% ID/g Bladder Mean” value (NOD/SCID Model, no blocker) was 33.92 % ID/g, the “% ID/g Blood Mean” value (NOD/SCID Model, no blocker) was 5.01 % ID/g and the “% ID/g Brain Mean” value (NOD/SCID Model, no blocker) was 0.25 % ID/g. The “% ID/g Fat Mean” value (NOD/SCID Model, no blocker) was 1.63 % ID/g, the “% ID/g Femur Mean” value (NOD/SCID Model, no blocker) was 5.00 % ID/g and the “% ID/g Heart Mean” value (NOD/SCID Model, no blocker) was 2.07 % ID/g. The “% ID/g Kidney Mean” value (NOD/SCID Model, no blocker) was 2.15 % ID/g, the “% ID/g Large intestine Mean” value (NOD/SCID Model, no blocker) was 1.89 % ID/g and the “% ID/g Liver Mean” value (NOD/SCID Model, no blocker) was 3.72 % ID/g. The “% ID/g Lung Mean” value (NOD/SCID Model, no blocker) was 2.77 % ID/g, the “% ID/g Muscle Mean” value (NOD/SCID Model, no blocker) was 2.84 % ID/g and the “% ID/g Pancreas Mean” value (NOD/SCID Model, no blocker) was 4.40 % ID/g. For the same compound, the “% ID/g Salivary gland Mean” value (NOD/SCID Model, no blocker) was 13.40 % ID/g, the “% ID/g Small intestine Mean” value (NOD/SCID Model, no blocker) was 2.09 % ID/g and the “% ID/g Spleen Mean” value (NOD/SCID Model, no blocker) was 1.49 % ID/g. For the same compound, the “% ID/g Stomach Mean” value (NOD/SCID Model, no blocker) was 1.70 % ID/g, the “% ID/g Tumor Mean” value (NOD/SCID Model, no blocker) was 16.31 % ID/g and the “% ID/g Bladder” value [2] was 0.22 % ID/g and 0.74 % ID/g. The “% ID/g Blood” value [2] was 0.10 % ID/g, the “% ID/g Brain” value [2] was 0.01 % ID/g and the “% ID/g Fat” value [2] was 0.03 % ID/g and 0.01 % ID/g. The “% ID/g Femur” value [2] was 0.12 % ID/g, the “% ID/g Heart” value [2] was 0.05 % ID/g and the “% ID/g Kidney” value [2] was 1.19 % ID/g and 1.05 % ID/g. The “% ID/g Large intestine” value [2] was 0.08 % ID/g and 0.11 % ID/g, the “% ID/g Liver” value [2] was 1.88 % ID/g and 2.01 % ID/g and the “% ID/g Lung” value [2] was 0.21 % ID/g and 0.22 % ID/g. For the same compound, the “% ID/g Muscle” value [2] was 0.07 % ID/g and 0.04 % ID/g, the “% ID/g Pancreas” value [2] was 0.05 % ID/g and the “% ID/g Salivery gland” value [2] was 0.07 % ID/g and 0.08 % ID/g. The “% ID/g Small intestine” value [2] was 3.50 % ID/g and 2.97 % ID/g, the “% ID/g Spleen” value [2] was 0.08 % ID/g and the “% ID/g Stomach” value [2] was 0.08 % ID/g and 0.15 % ID/g. The “% ID/g Tumor” value [2] was 0.17 % ID/g and 0.18 % ID/g, the “% ID/g Bladder Mean” value [2] was 0.48 % ID/g and the “% ID/g Blood Mean” value [2] was 0.10 % ID/g. For the same compound, the “% ID/g Brain Mean” value [2] was 0.01 % ID/g, the “% ID/g Fat Mean” value [2] was 0.02 % ID/g and the “% ID/g Femur Mean” value [2] was 0.12 % ID/g. The “% ID/g Heart Mean” value [2] was 0.05 % ID/g, the “% ID/g Kidney Mean” value [2] was 1.12 % ID/g and the “% ID/g Large intestine Mean” value [2] was 0.09 % ID/g. The “% ID/g Liver Mean” value [2] was 1.95 % ID/g, the “% ID/g Lung Mean” value [2] was 0.21 % ID/g and the “% ID/g Muscle Mean” value [2] was 0.05 % ID/g. The “% ID/g Pancreas Mean” value [2] was 0.05 % ID/g, the “% ID/g Salivary gland Mean” value [2] was 0.08 % ID/g and the “% ID/g Small intestine Mean” value [2] was 3.24 % ID/g. The “% ID/g Spleen Mean” value [2] was 0.08 % ID/g, the “% ID/g Stomach Mean” value [2] was 0.11 % ID/g and the “% ID/g Tumor Mean” value [2] was 0.18 % ID/g. For the same compound, the “% ID/g Bladder” value (Nude Model, no blocker) was 1.18 % ID/g and 2.99 % ID/g, the “% ID/g Blood” value (Nude Model, no blocker) was 3.06 % ID/g and 3.20 % ID/g and the “% ID/g Brain” value (Nude Model, no blocker) was 0.09 % ID/g and 0.08 % ID/g. The “% ID/g Fat” value (Nude Model, no blocker) was 0.52 % ID/g and 0.77 % ID/g, the “% ID/g Femur” value (Nude Model, no blocker) was 4.44 % ID/g and 3.86 % ID/g and the “% ID/g Heart” value (Nude Model, no blocker) was 1.35 % ID/g and 1.52 % ID/g. The “% ID/g Kidney” value (Nude Model, no blocker) was 1.69 % ID/g and 1.72 % ID/g, the “% ID/g Large intestine” value (Nude Model, no blocker) was 1.20 % ID/g and 1.30 % ID/g and the “% ID/g Liver” value (Nude Model, no blocker) was 1.81 % ID/g and 1.93 % ID/g. The “% ID/g Lung” value (Nude Model, no blocker) was 2.03 % ID/g and 2.25 % ID/g, the “% ID/g Muscle” value (Nude Model, no blocker) was 1.86 % ID/g and 1.93 % ID/g and the “% ID/g Pancreas” value (Nude Model, no blocker) was 3.94 % ID/g and 3.77 % ID/g. For the same compound, the “% ID/g Salivery gland” value (Nude Model, no blocker) was 7.74 % ID/g, the “% ID/g Small intestine” value (Nude Model, no blocker) was 1.93 % ID/g and 1.63 % ID/g and the “% ID/g Spleen” value (Nude Model, no blocker) was 0.90 % ID/g and 1.02 % ID/g. The “% ID/g Stomach” value (Nude Model, no blocker) was 1.06 % ID/g and 1.16 % ID/g, the “% ID/g Tumor” value (Nude Model, no blocker) was 10.87 % ID/g and 13.08 % ID/g and the “% ID/g Bladder Mean” value (Nude Model, no blocker) was 2.09 % ID/g. The “% ID/g Blood Mean” value (Nude Model, no blocker) was 3.13 % ID/g, the “% ID/g Brain Mean” value (Nude Model, no blocker) was 0.09 % ID/g and the “% ID/g Fat Mean” value (Nude Model, no blocker) was 0.64 % ID/g. For the same compound, the “% ID/g Femur Mean” value (Nude Model, no blocker) was 4.15 % ID/g, the “% ID/g Heart Mean” value (Nude Model, no blocker) was 1.43 % ID/g and the “% ID/g Kidney Mean” value (Nude Model, no blocker) was 1.70 % ID/g. For the same compound, the “% ID/g Large intestine Mean” value (Nude Model, no blocker) was 1.25 % ID/g, the “% ID/g Liver Mean” value (Nude Model, no blocker) was 1.87 % ID/g and the “% ID/g Lung Mean” value (Nude Model, no blocker) was 2.14 % ID/g. For the same compound, the “% ID/g Muscle Mean” value (Nude Model, no blocker) was 1.90 % ID/g, the “% ID/g Pancreas Mean” value (Nude Model, no blocker) was 3.85 % ID/g and the “% ID/g Salivary gland Mean” value (Nude Model, no blocker) was 8.22 % ID/g. For the same compound, the “% ID/g Small intestine Mean” value (Nude Model, no blocker) was 1.78 % ID/g, the “% ID/g Spleen Mean” value (Nude Model, no blocker) was 0.96 % ID/g and the “% ID/g Stomach Mean” value (Nude Model, no blocker) was 1.11 % ID/g. For the same compound, the “% ID/g Tumor Mean” value (Nude Model, no blocker) was 11.97 % ID/g.
